Data set [1] relates to Candida parapsilosis clinical isolate CP3. Briefly: MIC, broth microdilution (CLSI M27-A3), CP3. Type of data set: cell-based. Particulars: MIC-0, CP3, 35 °C 48 h. The procedure, abridged:
(§1)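 MIC values come from triplicate microdilution plates incubated 48 h at 35 °C in RPMI 1640, each well seeded with 1–5 × 10^3 CFU/mL yeast and compound at final concentrations spanning 0.24–62.5 μg/mL.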
(In broth dilution the organism is exposed to a series of concentrations in liquid medium.)

The subject of another data set is A549 cell line. Kind of data set: In vitro cytotoxicity assay (resazurin), A549. Type of data set: cell-based, human. Particulars: Homo sapiens; A549, 24 h, resazurin. On the procedure: Mammalian cytotoxicity assays were performed as previously described with minor modifications. The normal human bronchial epithelial cells BEAS-2B and the human lung carcinoma epithelial cells A549 were grown in DMEM containing 10% fetal bovine serum (FBS) and 1% antibiotics. The confluent cells were then trypsinized with 0.05% trypsin and 0.53 mM EDTA, and resuspended in fresh DMEM medium. The cells were transferred into 96-well microtiter plates at a density of 3000 cells/well and were grown for 24 h. The following day, the medium was replaced by a fresh culture medium containing serially diluted compounds 3, 4, 7a, 7b, and 9, as well as the parent drug TOB at final concentrations of 0.48–62.5 μg/mL or sterile ddH2O (negative control). The cells were incubated for an additional 24 h at 37 °C with 5% CO2 in a humidified incubator. To evaluate cell survival, each well was treated with 10 μL (25 μg/mL) of resazurin sodium salt (Sigma-Aldrich) for 4–6 h. Metabolically active cells can convert resazurin (blue) to the highly fluorescent dye resorufin (pink), which was detected at λ560 excitation and λ590 emission wavelengths by using a SpectraMax M5 plate reader. Triton X-100® (1% v/v) gave the complete loss of cell viability and was used as the positive control. The percentage survival rates were calculated by using the following formula: % cell survival = [(fluorescence of sample) − (fluorescence of blank)] × 100/[(fluorescence of negative control) − (fluorescence of blank)].

Data set [2] concerns C. albicans ATCC 10231 (strain A). Kind of data set: MIC, broth microdilution (CLSI M27-A3), yeast strain A. Format: cell-based, Candida albicans. Particulars: Candida albicans, ATCC10231; MIC-0, strain A, 35 °C 48 h. The procedure, abridged: as §1
Data set [3] deals with Candida glabrata ATCC 2001 (strain H). Kind of data set: MIC, broth microdilution (CLSI M27-A3), yeast strain H. Type of data set: cell-based. The settings on record: Nakaseomyces glabratus, ATCC2001; MIC-0, strain H, 35 °C 48 h. The procedure, abridged:
as §1

In data set [4] the test system is C. albicans ATCC MYA-2310(S) (strain E). Briefly: MIC, broth microdilution (CLSI M27-A3), yeast strain E. Format: cell-based. The settings on record: Candida albicans; MIC-0, strain E, 35 °C 48 h. An outline of the steps: as §1
In data set [5] the test system is C. albicans ATCC MYA-1003(R) (strain G). Kind of data set: MIC, broth microdilution (CLSI M27-A3), yeast strain G. Format: cell-based. Particulars: Candida albicans; MIC-0, strain G, 35 °C 48 h. An outline of the steps: as §1
Data set [6] concerns murine red blood cells (mRBCs). Briefly: Hemolytic activity assay. Format: cell-based. Particulars: at 3.9 μg/mL, 2- to 8-fold their MIC values against the three C. neoformans clinical isolates. On the procedure:
(§2) The hemolytic activity of compounds 3, 4, 7a, 7b, and 9 as well as the parent compound TOB was determined by using previously described methods with minor modifications. Murine whole blood (1 mL) was suspended in 4 mL of PBS and centrifuged at 1000 rpm for 10 min at room temperature to obtain murine red blood cells (mRBCs). The mRBCs were washed four times in PBS and resuspended in the same buffer to a final concentration of 10^7 erythrocytes/mL. Two-fold serial dilutions of compounds 3, 4, 7a, 7b, and 9 were prepared using 100 μL of PBS buffer in Eppendorf tubes followed by the addition of 100 μL of mRBC suspension that made the final concentration of compounds and mRBCs to be 0.48–62.5 μg/mL and 5 × 10^6 erythrocytes/mL, respectively. The tubes were incubated at 37 °C for 1 h. The tubes with PBS buffer (200 μL) and Triton X-100® (1% v/v, 2 μL) served as the negative (blank) and positive controls, respectively. The percentage of hemolysis was calculated using the following equation: % hemolysis = [(absorbance of sample) − (absorbance of blank)] × 100/(absorbance of positive control).

A further data set in a line: Hemolytic activity assay. Type of data set: cell-based, murine. The settings on record: mouse, murine red blood cells (mRBCs); for hemolysis at 1 h, 0.48 μg/mL / hemolysis at 1 h, 0.975 μg/mL / hemolysis at 1 h, 1.95 μg/mL / hemolysis at 1 h, 3.9 μg/mL / hemolysis at 1 h, 7.8 μg/mL / hemolysis at 1 h, 15.6 μg/mL / hemolysis at 1 h, 31.3 μg/mL / hemolysis at 1 h, 62.5 μg/mL: mRBCs, 37 °C 1 h, ± SDEV; for hemolysis at 1 h: at their MIC values against the Aspergillus strains. On the procedure: as §2

Data set [7] concerns Aspergillus flavus ATCC MYA-3631 (strain K). Briefly: MIC, filamentous fungi (CLSI M38-A2), strain K. Type of data set: cell-based. Particulars: MIC-0, strain K, 35 °C 72 h. An outline of the steps: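 Spores from PDA cultures, inoculum 5 × 10^5 spores/mL in RPMI 1640 against two-fold serial dilutions (0.24–62.5 μg/mL for tobramycin derivatives). Incubated 72 h at 35 °C, triplicate.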

Data set [8] has as its system Candida parapsilosis clinical isolate CP1. Briefly: MIC, broth microdilution (CLSI M27-A3), CP1. Particulars: Lodderomyces parapsilosis; MIC-0, CP1, 35 °C 48 h. Format: cell-based. An outline of the steps:
as §1

The subject of data set [9] is C. albicans ATCC MYA-1237(R) (strain F). Briefly: MIC, broth microdilution (CLSI M27-A3), yeast strain F. Type of data set: cell-based. Particulars: Candida albicans; MIC-0, strain F, 35 °C 48 h. The procedure, abridged: as §1

Converted amounts (≈) assume the structure as drawn. Read-outs that look alike come from different tables or passages of the source.

One may read the MIC as the lowest concentration found to suppress growth. By IC50 is commonly meant the concentration at which inhibition is half-maximal.

For the molecule `CCCCCCCCCCCCc1cn(C[C@H]2O[C@H](O[C@@H]3[C@@H](O)[C@H](O[C@H]4O[C@H](CN)[C@@H](O)C[C@H]4N)[C@@H](N)C[C@H]3N)[C@H](O)[C@@H](N)[C@@H]2O)nn1` [Compound 7b, O-3-Amino-3,6-dideoxy-6-(4-dodecyl-1H-1,2,3-triazol-1-yl)-α-D-glucopyranosyl-(1→6)-O-[2,6-diamino-2,3,6-trideoxy-α-D-ribo-hexopyranosyl-(1→4)]-2-deoxy-D-streptamine], the MIC in data set [1] worked out at 7.8 µg/mL (≈ 11.4 µM). The same molecule came in with an IC50 in the data set on A549 cell line of more than 62.5 µg/mL. The molecule also came in with a minimum inhibitory concentration (MIC) in data set [2] of 3.9 µg/mL (≈ 5.68 µM). In addition, in data set [3], the MIC turned out to be 7.8 µg/mL (≈ 11.4 µM). In data set [4], this molecule showed an MIC of 7.8 µg/mL (≈ 11.4 µM). The MIC in data set [5] was 7.8 µg/mL (≈ 11.4 µM). Also, in data set [6], the mRBCs lysed result is on record as “up to 13%”. Further, in the data set “Hemolytic activity assay”, the hemolysis at 1 h, 0.48 μg/mL is 0%; the hemolysis at 1 h, 0.975 μg/mL came to 0%; the hemolysis at 1 h, 1.95 μg/mL was 14.8 ± 3.5%; the hemolysis at 1 h, 3.9 μg/mL is 13.4 ± 6.2%. In the data set “Hemolytic activity assay”, the hemolysis at 1 h, 7.8 μg/mL amounted to 24.6 ± 8.1%; the hemolysis at 1 h, 15.6 μg/mL was 40.8 ± 5.4%; the hemolysis at 1 h, 31.3 μg/mL was determined as 55.5 ± 5.4%; the hemolysis at 1 h, 62.5 μg/mL came out at 74.1 ± 0.8%. Moreover, the hemolysis at 1 h in “Hemolytic activity assay” lay in the range of 12 to 74%. The MIC in data set [7] (Aspergillus flavus, 72 h, read-out: MIC) lay within 7.8 to 31.3 µg/mL (≈ 11.4 to 45.6 µM). Besides, the MIC in [7] is 7.8 µg/mL (≈ 11.4 µM). In addition, it took 3.9 µg/mL (≈ 5.68 µM) to inhibit growth in data set [8] (MIC). The molecule also gave an MIC in [9] of 7.8 µg/mL (≈ 11.4 µM).

For `CCCCCCCCCCCC(=O)NC[C@H]1O[C@H](O[C@@H]2[C@@H](O)[C@H](O[C@H]3O[C@H](CN)[C@@H](O)C[C@H]3N)[C@@H](N)C[C@H]2N)[C@H](O)[C@@H](N)[C@@H]1O` [Compound 9, O-3-Amino-3,6-dideoxy-6-[(1-oxododecyl)amino]-α-D-glucopyranosyl-(1→6)-O-[2,6-diamino-2,3,6-trideoxy-α-D-ribo-hexopyranosyl-(1→4)]-2-deoxy-D-streptamine], in data set [1], it took 31.3 µg/mL (≈ 48.2 µM) to inhibit growth (MIC). Besides, in the data set on A549 cell line, the IC50 was more than 62.5 µg/mL. In data set [2], inhibition of growth (MIC) required 31.3 µg/mL (≈ 48.2 µM). The molecule also came in with an MIC in data set [3] of 31.3 µg/mL (≈ 48.2 µM). For the same molecule, the MIC in [4] came to 31.3 µg/mL (≈ 48.2 µM). The molecule further had an MIC in [5] of 31.3 µg/mL (≈ 48.2 µM). In addition, the mRBCs lysed result in data set [6] is “up to 13%”. Further, in the data set “Hemolytic activity assay”, the hemolysis at 1 h, 0.48 μg/mL is 0%; the hemolysis at 1 h, 0.975 μg/mL worked out at 0%; the hemolysis at 1 h, 1.95 μg/mL turned out to be 2.5 ± 1.5%; the hemolysis at 1 h, 3.9 μg/mL came to 4.1 ± 1.5%. In the data set “Hemolytic activity assay”, this molecule showed a hemolysis at 1 h, 7.8 μg/mL of 10.1 ± 4.6%; a hemolysis at 1 h, 15.6 μg/mL of 18.3 ± 5.4%; a hemolysis at 1 h, 31.3 μg/mL of 26 ± 11.6%; a hemolysis at 1 h, 62.5 μg/mL of 31.5 ± 1.5%. Besides, the hemolysis at 1 h in “Hemolytic activity assay” is 4 to 32%. In data set [8], it took 31.3 µg/mL (≈ 48.2 µM) to inhibit growth (MIC). The molecule also showed an MIC in data set [9] of 31.3 µg/mL (≈ 48.2 µM).

For the origin of these results see publication PMC5971061, “Differential Effects of Linkers on the Activity of Amphiphilic Tobramycin Antifungals” (Molecules : A Journal of Synthetic Chemistry and Natural …, 2018).
